Assay: Bioavailability of esters of methionine after spot dose to cows (Example 2)
Format: in vivo, cow
Protocol: The bioavailability of the esters was evaluated.
The samples were stored in a freezer.
The procedure of (b1) was repeated using 72 g of methionine ethyl ester hydrochloride, prepared as detailed above
• cyclohexyl methioninate: 122 g • methionine methyl ester hydrochloride: 73 g • sec butyl methioninate: 72 g

Row | SMILES | [met] methionine concentration in blood plasma (bovine, in vivo, 0 h) | [met] methionine concentration in blood plasma (bovine, in vivo, 1 h) | [met] methionine concentration in blood plasma (bovine, in vivo, 2 h) | [met] methionine concentration in blood plasma (bovine, in vivo, 3 h) | [met] methionine concentration in blood plasma (bovine, in vivo, 5 h) | [met] methionine concentration in blood plasma (bovine, in vivo, 7 h) | [met] methionine concentration in blood plasma (bovine, in vivo, 28 h) | Bioavailability % (bovine, in vivo, po) [%] | methionine equivalent provided to the cow by rumen absorption (bovine, in vivo) | time after intake within which methionine is provided to the blood stream (bovine, in vivo) | [met] methionine concentration in blood plasma (0 hours after administration, spot dose equivalent to 50 g methionine, 2 cows) | [met] methionine concentration in blood plasma (1 hour after administration, spot dose equivalent to 50 g methionine, 2 cows) | [met] methionine concentration in blood plasma (2 hours after administration, spot dose equivalent to 50 g methionine, 2 cows) | [met] methionine concentration in blood plasma (3 hours after administration, spot dose equivalent to 50 g methionine, 2 cows) | [met] methionine concentration in blood plasma (5 hours after administration, spot dose equivalent to 50 g methionine, 2 cows) | [met] methionine concentration in blood plasma (7 hours after administration, spot dose equivalent to 50 g methionine, 2 cows) | [met] methionine concentration in blood plasma (28 hours after administration, spot dose equivalent to 50 g methionine, 2 cows) | Bioavailability % (AUC method, spot dose equivalent to 50 g methionine) [%]
1 | CSCC[C@H](N)C(=O)OC1CCCCC1 [Cyclohexyl methioninate, cyclohexyl methioninate] | 0.29 mg/100 g of blood plasma | 2.55 mg/100 g of blood plasma | 2.27 mg/100 g of blood plasma | 1.88 mg/100 g of blood plasma | 1.61 mg/100 g of blood plasma | 1.55 mg/100 g of blood plasma | 0.38 mg/100 g of blood plasma | 35 |  |  |  |  |  |  |  |  |  | 
2 | CCCCCCCCCCCCOC(=O)[C@@H](N)CCSC [Dodecyl methioninate, dodecyl methioninate] | 0.33 mg/100 g of blood plasma | 0.38 mg/100 g of blood plasma | 0.37 mg/100 g of blood plasma | 0.37 mg/100 g of blood plasma | 0.44 mg/100 g of blood plasma | 0.45 mg/100 g of blood plasma | 0.28 mg/100 g of blood plasma | 3 |  |  |  |  |  |  |  |  |  | 
3 | CCOC(=O)[C@@H](N)CCSC.Cl [Methionine ethyl ester hydrochloride, methionine ethyl ester hydrochloride] | 0.36 mg/100 g of blood plasma | 2.78 mg/100 g of blood plasma | 2.60 mg/100 g of blood plasma | 2.30 mg/100 g of blood plasma | 2.00 mg/100 g of blood plasma | 1.43 mg/100 g of blood plasma | 0.38 mg/100 g of blood plasma | 30 |  |  |  |  |  |  |  |  |  | 
4 | COC(=O)[C@@H](N)CCSC.Cl [Methionine methyl ester hydrochloride, methionine methyl ester hydrochloride] | 0.41 mg/100 g of blood plasma | 1.96 mg/100 g of blood plasma | 1.43 mg/100 g of blood plasma | 1.27 mg/100 g of blood plasma | 1.18 mg/100 g of blood plasma | 1.22 mg/100 g of blood plasma | 0.43 mg/100 g of blood plasma | 25 |  |  |  |  |  |  |  |  |  | 
5 | COC(=O)[C@@H](N)CCSC [Methyl methioninate, methyl methioninate] | 0.34 mg/100 g of blood plasma | 4.08 mg/100 g of blood plasma | 3.87 mg/100 g of blood plasma | 3.25 mg/100 g of blood plasma | 2.57 mg/100 g of blood plasma | 2.51 mg/100 g of blood plasma | 0.41 mg/100 g of blood plasma | 51 |  |  |  |  |  |  |  |  |  | 
6 | CSCC[C@H](N)C(=O)OC(C)(C)C [Tertiary butyl methioninate, tertiary butyl methioninate] | 0.37 mg/100 g of blood plasma | 4.84 mg/100 g of blood plasma | 4.87 mg/100 g of blood plasma | 4.98 mg/100 g of blood plasma | 4.39 mg/100 g of blood plasma | 4.19 mg/100 g of blood plasma | 0.76 mg/100 g of blood plasma | 80 | approximately 80% | less than one |  |  |  |  |  |  |  | 
7 | CCOC(=O)[C@H](CCSC)NC(C)=O [ethyl N-acetyl methioninate] |  |  |  |  |  |  |  |  |  |  | 0.26 mg/100 g of blood plasma | 1.84 mg/100 g of blood plasma | 1.97 mg/100 g of blood plasma | 1.53 mg/100 g of blood plasma | 1.12 mg/100 g of blood plasma | 0.86 mg/100 g of blood plasma | 0.36 mg/100 g of blood plasma | 20
8 | CCCCOC(=O)[C@@H](N)CCSC [n-butyl methioninate] | 0.32 mg/100 g of blood plasma | 1.10 mg/100 g of blood plasma | 0.74 mg/100 g of blood plasma | 0.63 mg/100 g of blood plasma | 0.62 mg/100 g of blood plasma | 0.61 mg/100 g of blood plasma | 0.27 mg/100 g of blood plasma | 8 |  |  |  |  |  |  |  |  |  | 
9 | CCCCCCOC(=O)[C@@H](N)CCSC [n-hexyl methioninate] | 0.31 mg/100 g of blood plasma | 1.22 mg/100 g of blood plasma | 0.92 mg/100 g of blood plasma | 0.94 mg/100 g of blood plasma | 1.06 mg/100 g of blood plasma | 1.07 mg/100 g of blood plasma | 0.35 mg/100 g of blood plasma | 17 |  |  |  |  |  |  |  |  |  | 
10 | CCCCCCCCCCCCCCCCCCOC(=O)[C@@H](N)CCSC [n-octadecyl methioninate] | 0.37 mg/100 g of blood plasma | 0.37 mg/100 g of blood plasma | 0.37 mg/100 g of blood plasma | 0.34 mg/100 g of blood plasma | 0.37 mg/100 g of blood plasma | 0.31 mg/100 g of blood plasma | 0.38 mg/100 g of blood plasma | 1 |  |  |  |  |  |  |  |  |  | 
11 | CCCOC(=O)[C@@H](N)CCSC [n-propyl methioninate] | 0.32 mg/100 g of blood plasma | 2.29 mg/100 g of blood plasma | 1.70 mg/100 g of blood plasma | 1.55 mg/100 g of blood plasma | 1.27 mg/100 g of blood plasma | 1.14 mg/100 g of blood plasma | 0.32 mg/100 g of blood plasma | 22 |  |  |  |  |  |  |  |  |  | 
12 | CCC(C)OC(=O)[C@@H](N)CCSC (some centres unmarked) [sec butyl methioninate] | 0.35 mg/100 g of blood plasma | 2.75 mg/100 g of blood plasma | 2.49 mg/100 g of blood plasma | 2.39 mg/100 g of blood plasma | 1.75 mg/100 g of blood plasma | 1.56 mg/100 g of blood plasma | 0.44 mg/100 g of blood plasma | 28 |  |  |  |  |  |  |  |  |  | 

Source: patent publication US6872749B2, “Method for supplying bioavailable methionine to a cow” (Adisseo Ireland Limited, priority 1998, dated 2005)
